# US12606534B2, “Method for the treatment of keratin materials using acid, ester or amide C-glycoside derivatives, and cosmetic composition containing same” (L'OREAL, priority 2016, dated 2026)
# Test system: normal human melanocytes
# Test: Depigmenting activity (reduction of melanin production) in normal human melanocytes in vitro
# Format: cell-based
# Settings: compound at 100 μM, 72 hours incubation, optical density (amount of melanin)
# Description: The depigmenting activity (reduction of melanin production) of compounds of formula (I) was measured by assay in normal human melanocytes in vitro as follows.
# First, normal human melanocytes are cultured and distributed in a multiple-well plate.
# After 24 hours, the culture medium was replaced with a medium containing the compounds of formula (I) to be evaluated. The cells were incubated for 72 hours before measuring the final optical density, which measures the amount of melanin produced by the melanocytes. The measurement was calibrated and the compounds were tested at 100 μM.
# Various test runs were performed and the results are collated in the following tables.
compound,measurement,setting,value
CC(=O)OC[C@H]1OC(CC(=O)O)[C@H](OC(C)=O)[C@@H](OC(C)=O)[C@@H]1OC(C)=O (stereo partly drawn) [Compound 1],"% depigmentation at 100 μM, Run 3",Run 3,24%
C[C@@H]1OC(CC(=O)N(C)C)[C@H](O)[C@H](O)[C@H]1O (stereo partly drawn) [Compound 4],"% depigmentation at 100 μM, Run 1",Run 1,15%
O=C(O)C[C@@H]1O[C@H](CO)[C@@H](O)[C@H](O)[C@H]1O [Compound 2],"% depigmentation at 100 μM, Run 2",Run 2,29%
